Values quoted from earlier work as cited in US20040057977A1, “Water-based pest bait compositions having water-sensitive insecticides and methods of making and use thereof” (priority 1999, published 2004).

Experiments:
cockroaches = details: in vivo
[1] = in vivo

## OB(O)O [boric acid]
cockroaches
  time to kill cockroaches: roughly one week
[1]
  eye and lung irritation: slight eye and lung irritation

## COP(=O)(NC(C)=O)SC (stereo not drawn) [Acephate, O,S-dimethyl acetylphosphoramidothioate]
cockroaches
  time to kill cockroaches: within about two hours
